Legend:
[1] = test system: GM15850 cells (FRDA lymphoblastoid cell line); assay: In-cell deacetylase inhibition assay (DAC assay); type: cell-based, human; conditions: 4 h incubation
From the text: Compound dilutions were made in 100% DMSO followed by parallel dilution in media with 2% DMSO. […] The final concentration of DMSO in each well was 0.2%.

[2] = Cytotoxicity, antiproliferation assay; type: cell-based; conditions: human, Hct116 cells
Hct116 cells = assay: Cytotoxicity, antiproliferation assay; type: cell-based; conditions: for ratio cytotoxicity/DAC: Hct116 antiproliferation IC50 / in-cell DAC IC50
[3] = test system: FXN gene transcription in primary lymphocytes from a FRDA patient; assay: Frataxin mRNA assay (quantitative RT-PCR); type: cell-based, human; conditions: 10 μM compound, 48 h, primary lymphocytes from FRDA patient donor blood, normalized to DMSO control
Experimental: In general, the activity of a compound against HDAC3 is related to its ability to increase FXN gene transcription. Compounds click-1 and -2 were assayed for their ability to increase transcription of the FXN gene in primary lymphocytes from a FRDA patient, as previously described.
Quantitative RT-PCR was used to estimate FXN mRNA levels after treatment with 10 μM compound for 48 h, and values were normalized to the level of FXN mRNA observed for a DMSO vehicle control.
Figure 3 Click-derived HDAC inhibitors induce frataxin gene expression in primary lymphocytes isolated from FRDA patient donor blood samples, compared to a standard pimelic o-aminobenzamide (109). Concentration of each compound is 10 μM.

[4] = Acid stability determination; type: physicochemical; conditions: pH = 2, 50 °C; for half-life at 100 µM: 0.01 M HCl in deionized water, read-out: t1/2 in acidic conditions (converted)
Experimental: Immediately after mixing, an aliquot (100 μL) was sampled and analyzed by HPLC/UV. The area under the compound peak was determined and used as the time zero reference point. […] These were analyzed by the same HPLC/UV method and the area of the peak corresponding to the test compound was measured. Percent remaining at a given time point was then calculated as the ratio of the area under the peak after incubation to that at time zero times 100.

in vivo = conditions: rat, 5 mg/kg
recombinant HDAC1 = recombinant HDAC1 (Homo sapiens, UniProt Q13547); assay: HDAC enzyme inhibition assay (Fluor-de-Lys), HDAC1
Sequence of recombinant HDAC1 (Q13547 whole entry): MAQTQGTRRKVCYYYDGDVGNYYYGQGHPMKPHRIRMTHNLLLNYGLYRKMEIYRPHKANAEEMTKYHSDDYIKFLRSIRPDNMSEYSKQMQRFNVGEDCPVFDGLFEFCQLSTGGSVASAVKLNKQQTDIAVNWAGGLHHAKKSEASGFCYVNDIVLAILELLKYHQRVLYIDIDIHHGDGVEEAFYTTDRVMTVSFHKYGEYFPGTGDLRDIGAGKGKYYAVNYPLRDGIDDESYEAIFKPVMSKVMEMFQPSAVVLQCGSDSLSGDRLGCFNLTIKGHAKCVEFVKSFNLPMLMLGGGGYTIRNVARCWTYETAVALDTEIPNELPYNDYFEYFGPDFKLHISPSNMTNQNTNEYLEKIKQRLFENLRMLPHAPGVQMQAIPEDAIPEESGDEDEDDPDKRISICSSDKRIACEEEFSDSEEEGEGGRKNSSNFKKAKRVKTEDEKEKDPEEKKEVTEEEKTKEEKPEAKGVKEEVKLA

recombinant HDAC2 = recombinant HDAC2 (Homo sapiens, UniProt Q92769); assay: HDAC enzyme inhibition assay (Fluor-de-Lys), HDAC2
Sequence of recombinant HDAC2 (Q92769 whole entry): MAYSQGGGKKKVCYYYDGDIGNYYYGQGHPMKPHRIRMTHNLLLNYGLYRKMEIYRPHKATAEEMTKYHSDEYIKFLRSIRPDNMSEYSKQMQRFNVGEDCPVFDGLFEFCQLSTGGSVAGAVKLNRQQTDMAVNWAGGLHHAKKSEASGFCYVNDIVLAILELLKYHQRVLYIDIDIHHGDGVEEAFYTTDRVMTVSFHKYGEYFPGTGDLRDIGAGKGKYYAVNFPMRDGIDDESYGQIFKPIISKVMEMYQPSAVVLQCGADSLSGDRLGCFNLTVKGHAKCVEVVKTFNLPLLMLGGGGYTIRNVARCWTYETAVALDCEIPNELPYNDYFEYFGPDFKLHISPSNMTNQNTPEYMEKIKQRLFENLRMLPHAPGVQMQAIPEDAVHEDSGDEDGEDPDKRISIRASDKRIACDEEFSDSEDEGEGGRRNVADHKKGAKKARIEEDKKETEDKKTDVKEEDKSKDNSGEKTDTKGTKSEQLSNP

HDAC3/NcoR2 = HDAC3/NcoR2 (Homo sapiens, UniProt O15379); assay: HDAC enzyme inhibition assay (Fluor-de-Lys), HDAC3; conditions: for selectivity for HDAC3 over HDAC1: ratio of IC50 values HDAC1/HDAC3
Sequence of HDAC3/NcoR2 (O15379 whole entry): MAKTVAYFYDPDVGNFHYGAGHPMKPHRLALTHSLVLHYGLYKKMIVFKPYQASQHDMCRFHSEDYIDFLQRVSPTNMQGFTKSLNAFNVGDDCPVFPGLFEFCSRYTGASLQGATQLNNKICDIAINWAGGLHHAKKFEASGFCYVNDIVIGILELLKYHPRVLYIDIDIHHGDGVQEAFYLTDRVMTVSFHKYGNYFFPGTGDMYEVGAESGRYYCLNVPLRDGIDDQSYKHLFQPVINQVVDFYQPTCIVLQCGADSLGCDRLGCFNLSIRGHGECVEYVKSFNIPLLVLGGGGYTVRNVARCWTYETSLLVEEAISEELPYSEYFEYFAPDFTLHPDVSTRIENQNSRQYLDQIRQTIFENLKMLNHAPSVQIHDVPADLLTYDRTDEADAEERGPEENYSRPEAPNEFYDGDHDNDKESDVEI
Sequence of HDAC3/NcoR2 (Q9Y618 395-489 partner limits assumed): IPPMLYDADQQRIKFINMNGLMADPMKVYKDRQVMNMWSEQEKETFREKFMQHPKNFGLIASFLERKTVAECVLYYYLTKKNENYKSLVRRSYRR

[5] = Brain penetration in mouse; type: in vivo; conditions: brain and plasma
[6] = Compound stability (method not described); type: physicochemical; conditions: conditions not stated
From the text: All three azides 5, 8 and 16 were subjected to click chemistry with common intermediate 3 to give the corresponding triazole products click-1, click-2 and click-3 (Scheme 5). Each compound was characterized by ^1H-, ^13C-NMR and mass spectrometry.

Compound | IC50 ([1]; Homo sapiens) [nM] | half-life at 100 µM [4] [h] | improvement of acid half-life relative to HDACi 109 [4] [fold] | IC50 (recombinant HDAC1) [nM] | IC50 (recombinant HDAC2) [nM] | IC50 (HDAC3/NcoR2) [nM] | selectivity for HDAC3 over HDAC1 (HDAC3/NcoR2) [fold] | IC50 [2] [nM] | ratio cytotoxicity/DAC (Hct116 cells) | promoting transcription of the silenced FXN gene (FXN mRNA) [3] | other results
Nc1ccccc1NC(=O)/C=C/c1cn(CC=Cc2ccccc2)nn1 [Click-1, (E)-N-(2-Aminophenyl)-3-(1-cinnamyl-1H-1,2,3-triazol-4-yl)acrylamide] | 5600 | 33 | 5.5 | 66 | 477 | 28 | 2.4 | 23000 | 4.1 | highly active | Kp (in vivo; brain and plasma, intravenous): 0.33; Cmax (in vivo; brain, iv): 800 ng/g; Tmax (in vivo; brain, iv): 5 min
Nc1ccccc1NC(=O)/C=C/c1cn(C/C=C/c2ccc3cc[nH]c3c2)nn1 [Click-2, (E)-3-(1-((E)-3-(1H-Indol-6-yl)allyl)-1H-1,2,3-triazol-4-yl)-N-(2-aminophenyl)acrylamide] | 5100 | 24 | 4 | 46 | 466 | 39 | 1.2 | 27000 | 5.3 | highly active | Kp [5]: 0.03
Nc1ccccc1NC(=O)/C=C/c1cn(CCOc2ccc3cc[nH]c3c2)nn1 [Click-3, (E)-3-(1-(2-((1H-Indol-6-yl)oxy)ethyl)-1H-1,2,3-triazol-4-yl)-N-(2-aminophenyl)acrylamide] | 29400 |  |  |  |  |  |  |  |  |  | stability [6]: poor stability
Nc1ccccc1NC(=O)c1ccc(CNC(=O)OCc2cccnc2)cc1 [MS-275, reference compound] |  |  |  |  |  |  |  |  |  |  | IC50 [1]: 1900 nM; IC50 (Hct116 cells; Hct116 cells): 1000 nM
Cc1ccc(C(=O)NCCCCCC(=O)Nc2ccccc2N)cc1 [compound 109] |  | 6 |  |  |  |  |  |  |  |  | 
